From ChEMBL document CHEMBL1828558, “Discovery of (+)-N-(3-aminopropyl)-N-[1-(5-benzyl-3-methyl-4-oxo-[1,2]thiazolo[5,4-d]pyrimidin-6-yl)-2-methylpropyl]-4-methylbenzamide (AZD4877), a kinesin spindle protein inhibitor and potential anticancer agent” (J Med Chem, 2011)

Key:
[1] = Clearance in nude mouse; type: ADME, organism-based; conditions: in vivo
[2] = Plasma concentration in Hans Wistar rat hollow fiber model implanted with human COLO205 cells at 6 mg/kg, iv after 24 hrs; type: ADME, organism-based, COLO 205; parameters: dose 6 mg/kg, route intravenous
[3] = Volume of distribution at steady state in Wistar rat at 6 mg/kg, iv administered as a single bolus dose; type: ADME, organism-based; parameters: dose 6 mg/kg, route intravenous; conditions: in vivo, read-out: Vdss
Cytochrome P450 2C19 = Cytochrome P450 2C19 (Homo sapiens, UniProt P33261); assay: Inhibition of human recombinant CYP2C19; type: ADME
Sequence of Cytochrome P450 2C19 (P33261 whole entry): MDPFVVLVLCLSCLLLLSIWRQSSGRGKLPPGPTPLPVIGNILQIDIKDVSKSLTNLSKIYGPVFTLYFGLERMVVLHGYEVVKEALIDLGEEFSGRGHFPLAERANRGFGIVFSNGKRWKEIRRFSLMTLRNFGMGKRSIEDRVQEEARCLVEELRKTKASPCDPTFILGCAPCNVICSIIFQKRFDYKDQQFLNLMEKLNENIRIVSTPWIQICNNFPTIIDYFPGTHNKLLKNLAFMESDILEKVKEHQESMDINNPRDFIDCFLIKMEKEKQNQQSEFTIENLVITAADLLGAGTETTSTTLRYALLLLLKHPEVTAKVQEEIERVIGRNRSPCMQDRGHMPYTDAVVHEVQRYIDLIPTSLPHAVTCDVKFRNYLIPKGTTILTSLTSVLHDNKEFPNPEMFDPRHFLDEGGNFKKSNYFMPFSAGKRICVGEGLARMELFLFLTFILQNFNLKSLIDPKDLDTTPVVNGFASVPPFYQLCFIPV

[4] = Initial plasma concentration in Wistar rat at 6 mg/kg, iv administered as a single bolus dose; type: ADME, organism-based; parameters: dose 6 mg/kg, route intravenous
[5] = Binding affinity to L-type calcium channel in guinea pig ileum by radioligand displacement assay; type: tissue-based, Cavia porcellus
Liver = assay: Intrinsic clearance in Wistar rat hepatocytes at 2 uM; type: ADME, cell-based, Hepatocyte
Cytochrome P450 3A4 = Cytochrome P450 3A4 (Homo sapiens, UniProt P08684); assay: Inhibition of human recombinant CYP3A4; type: ADME
Sequence of Cytochrome P450 3A4 (P08684 whole entry): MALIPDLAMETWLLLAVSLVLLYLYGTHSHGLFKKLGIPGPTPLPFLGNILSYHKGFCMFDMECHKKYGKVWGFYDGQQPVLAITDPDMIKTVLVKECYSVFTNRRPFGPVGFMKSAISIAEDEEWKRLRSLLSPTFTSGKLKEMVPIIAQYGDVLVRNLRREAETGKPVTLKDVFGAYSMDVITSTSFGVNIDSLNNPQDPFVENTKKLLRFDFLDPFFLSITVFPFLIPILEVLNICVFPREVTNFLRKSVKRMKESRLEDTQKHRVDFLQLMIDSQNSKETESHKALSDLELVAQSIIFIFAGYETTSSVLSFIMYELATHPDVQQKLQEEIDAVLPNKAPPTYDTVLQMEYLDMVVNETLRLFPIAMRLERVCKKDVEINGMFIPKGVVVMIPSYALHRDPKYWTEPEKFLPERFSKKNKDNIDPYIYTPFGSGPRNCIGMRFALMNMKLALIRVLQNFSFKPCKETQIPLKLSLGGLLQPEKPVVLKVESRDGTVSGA

COLO 205 = assay: Anticancer activity against human COLO205 cells after 72 hrs by MTS/PMS assay; type: functional, cell-based; conditions: colo 205
[6] = Volume of distribution in rat at 1 and 5 mg/kg, iv administered as bolus dose; type: ADME, organism-based; parameters: dose 5 mg/kg, route intravenous; conditions: in vivo
[7] = Clearance in Wistar rat at 6 mg/kg, iv administered as a single bolus dose; type: ADME, organism-based; parameters: dose 6 mg/kg, route intravenous; conditions: in vivo
[8] = Half-life in Wistar rat at 6 mg/kg, iv administered as a single bolus dose; type: ADME, organism-based; parameters: dose 6 mg/kg, route intravenous; conditions: in vivo
[9] = Plasma protein binding in human; type: ADME, cell-free; conditions: read-out: PPB (converted)
Cytochrome P450 1A2 = target: T1, Cytochrome P450 1A2 (Homo sapiens, UniProt P05177); assay: Inhibition of human recombinant CYP1A2; type: ADME
T1 sequence (P05177 whole entry): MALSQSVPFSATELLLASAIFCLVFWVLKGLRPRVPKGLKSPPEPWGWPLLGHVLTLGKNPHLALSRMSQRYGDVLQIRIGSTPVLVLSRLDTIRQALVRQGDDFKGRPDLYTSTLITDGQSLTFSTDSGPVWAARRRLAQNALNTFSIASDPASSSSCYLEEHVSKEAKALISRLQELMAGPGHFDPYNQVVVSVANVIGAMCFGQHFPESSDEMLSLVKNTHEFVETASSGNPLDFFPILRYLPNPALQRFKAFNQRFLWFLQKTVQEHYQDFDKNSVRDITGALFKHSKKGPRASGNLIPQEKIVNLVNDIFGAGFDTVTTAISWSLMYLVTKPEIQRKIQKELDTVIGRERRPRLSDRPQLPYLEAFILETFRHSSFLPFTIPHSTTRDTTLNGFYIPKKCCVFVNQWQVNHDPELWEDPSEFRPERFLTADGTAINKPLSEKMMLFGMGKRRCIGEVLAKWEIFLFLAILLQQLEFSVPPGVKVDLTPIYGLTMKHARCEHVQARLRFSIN

Rattus norvegicus = assay: Hepatic blood flow in rat at 1 and 5 mg/kg, iv administered as bolus dose; type: ADME, organism-based, Liver; parameters: dose 5 mg/kg, route intravenous; conditions: in vivo
[10] = Half-life in rat at 1 and 5 mg/kg, iv administered as bolus dose; type: ADME, organism-based; parameters: dose 5 mg/kg, route intravenous; conditions: in vivo
Cytochrome P450 2D6 = Cytochrome P450 2D6 (Homo sapiens, UniProt P10635); assay: Inhibition of human recombinant CYP2D6; type: ADME
Sequence of Cytochrome P450 2D6 (P10635 whole entry): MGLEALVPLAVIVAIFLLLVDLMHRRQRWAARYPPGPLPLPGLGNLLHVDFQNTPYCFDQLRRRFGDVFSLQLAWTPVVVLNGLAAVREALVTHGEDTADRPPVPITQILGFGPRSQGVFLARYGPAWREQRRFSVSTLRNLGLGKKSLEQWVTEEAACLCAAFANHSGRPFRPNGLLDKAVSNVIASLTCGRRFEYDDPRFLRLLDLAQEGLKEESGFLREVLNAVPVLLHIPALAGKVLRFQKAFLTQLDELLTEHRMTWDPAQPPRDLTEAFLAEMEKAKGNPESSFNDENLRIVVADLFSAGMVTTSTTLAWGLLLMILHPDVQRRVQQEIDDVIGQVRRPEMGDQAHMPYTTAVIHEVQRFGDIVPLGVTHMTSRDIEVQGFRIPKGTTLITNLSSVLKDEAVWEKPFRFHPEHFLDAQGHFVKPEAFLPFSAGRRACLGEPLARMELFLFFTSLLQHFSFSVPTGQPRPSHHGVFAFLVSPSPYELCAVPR

[11] = target: T2, Kinesin-like protein KIF11 (Homo sapiens, UniProt P52732); assay: Inhibition of human recombinant C-terminal His6-tagged KSP ATPase activity after 1 hr by malachite green assay
T2 sequence (P52732 whole entry): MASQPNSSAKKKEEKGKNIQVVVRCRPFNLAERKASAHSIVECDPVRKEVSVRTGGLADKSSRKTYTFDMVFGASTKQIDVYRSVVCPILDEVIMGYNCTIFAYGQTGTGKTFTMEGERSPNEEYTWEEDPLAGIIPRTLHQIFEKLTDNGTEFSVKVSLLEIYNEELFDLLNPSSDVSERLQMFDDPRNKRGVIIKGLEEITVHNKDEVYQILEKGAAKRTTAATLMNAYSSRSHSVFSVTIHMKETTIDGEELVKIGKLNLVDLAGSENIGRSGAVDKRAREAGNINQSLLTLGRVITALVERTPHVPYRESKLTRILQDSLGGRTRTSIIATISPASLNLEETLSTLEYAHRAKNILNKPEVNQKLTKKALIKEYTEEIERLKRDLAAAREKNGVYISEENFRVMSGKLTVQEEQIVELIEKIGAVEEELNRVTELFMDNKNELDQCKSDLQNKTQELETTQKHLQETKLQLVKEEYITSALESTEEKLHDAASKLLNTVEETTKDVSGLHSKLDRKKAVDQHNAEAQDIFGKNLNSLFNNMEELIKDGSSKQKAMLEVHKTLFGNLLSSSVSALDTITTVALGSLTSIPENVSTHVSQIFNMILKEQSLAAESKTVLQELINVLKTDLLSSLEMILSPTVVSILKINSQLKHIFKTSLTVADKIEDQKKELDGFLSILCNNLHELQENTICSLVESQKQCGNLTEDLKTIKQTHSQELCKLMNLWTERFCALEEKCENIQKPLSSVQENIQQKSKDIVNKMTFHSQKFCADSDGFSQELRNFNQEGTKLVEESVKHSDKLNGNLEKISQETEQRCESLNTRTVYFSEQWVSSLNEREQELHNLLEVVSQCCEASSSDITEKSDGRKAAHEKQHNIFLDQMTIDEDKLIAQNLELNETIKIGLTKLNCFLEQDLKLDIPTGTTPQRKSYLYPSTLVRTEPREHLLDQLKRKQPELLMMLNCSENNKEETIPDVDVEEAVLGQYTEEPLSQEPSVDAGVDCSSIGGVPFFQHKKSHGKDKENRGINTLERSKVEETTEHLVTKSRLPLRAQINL

[12] = AUC (infinity) in Wistar rat at 6 mg/kg, iv administered as a single bolus dose; type: ADME, organism-based; parameters: time infinity, dose 6 mg/kg, route intravenous; conditions: plasma

clearance [1]: 17 mL/min/kg | concentration at 24 h [2]: 2.8 ng/mL | Vd [3]: 10 L/kg | IC50 (Cytochrome P450 2C19): > 10000 nM | C0 [4]: 1080 ng/mL | IC50 [5]: 2700 nM | CL (Liver): 4 µL/min | IC50 (Cytochrome P450 3A4): > 10000 nM | IC50 (COLO 205): 3 nM | Vd [6]: 10 L/kg | clearance [7]: 36 mL/min/kg | half-life [8]: 3.5 h | fraction unbound [9]: 0.046 | IC50 (Cytochrome P450 1A2): > 10000 nM | QH (Rattus norvegicus): 50% | half-life [10]: 3.5 h | IC50 (Cytochrome P450 2D6): > 10000 nM | IC50 [11]: 2 nM | AUC(0-inf) [12]: 2840 ng·h/mL
Compound: Cc1ccc(C(=O)N(CCCN)C(c2nc3snc(C)c3c(=O)n2Cc2ccccc2)C(C)C)cc1 (single isomer, unassigned; (+)) [AZD-4877]
